Measurements from patent US20250121013A1, “USE OF BACILLUS AMYLOLIQUEFACIENS FOR PREVENTING AND TREATING PARKINSON'S DISEASE” (Artugen Therapeutics Ltd., priority 2021, published 2025).

Tests used:
MPTP-induced model of PD [1] = assay: MPTP-induced mouse model of PD, striatal dopamine and DOPAC (Example 1); type: in vivo
Procedure: • Route(s) of administration: IP for MPTP (1-Methyl-4-phenyl-1,2,3,6-tetrahydropyridine hydrochloride) and vehicle, PO for ART24 and vehicle (trehalose) • Dose Volume(s): 10 mL/kg for MPTP, 0.1 mL for ART24 • Formulation(s): PBS for MPTP; saline-based formulation for ART24 • Dose Levels: 20 mg/kg for MPTP, for ART24 • Dose Frequency: 4 doses (QD) for MPTP; 11 days BID for ART24 • Study duration: 11 days • Number of Groups: 4 • Number of animals per group: 13 • Total number of animals: 52 (57 animals were enrolled in the study)
MPTP model. MPTP was formulated in phosphate buffered saline (PBS) and administered to mice QD for 4 days at a dose of 20 mg/kg (2 mg/mL delivered as 10 mL/kg).
Neurotransmitter measurements (DA and DOPAC). 10 mice from each were anesthetized and blood collected into K2EDTA tubes by a cardiac puncture. Brains were extracted and dissected. The rostral part was dissected and striata removed. The striata were frozen and subsequently evaluated for levels of dopamine and metabolites.
Striata were homogenized in 0.3M perchloric acid. The resulting supernatant was analyzed for levels of monoamines by reverse phase HPLC-ECD.
Data analysis. Data were analyzed using a two-way repeated measures ANOVA with a post hoc Fisher's LSD multiple comparison test. The raw data were also analyzed for outliers using ROUT method (Q=1%). GraphPad Prism 9 was used for data analysis and presentation.

MPTP-induced model of PD [2] = assay: Locomotion activity in MPTP zebrafish model (Example 6); type: in vivo; conditions: larvae; MPTP 250 μM 96 to 120 hpf; ART24 4×10^6 CFU/mL in water of MPTP-exposed fish; 50 min alternating dark/light
Procedure: Zebrafish larvae were dosed with MPTP (250 μM; 96 to 120 hours post fertilization) or sham treated (DMSO only; n=22) in water. ART24 was dosed in water of MPTP-exposed fish (4×10^6 CFU/mL; n=16). Movement was evaluated with an imaging system during 50 min of testing consisting of 10-min periods of alternating darkness/bright light. Data was analyzed by one-way ANOVA followed by a Dunnet test comparing against MPTP treatment.

[3] = compared to saline/MPTP dosed animals, PO BID Day -3 to Day 7, MPTP 20 mg/kg IP QD 4 days, n=10/group
[4] = MPTP 20 mg/kg IP QD 4 days compared to saline/vehicle treated animals

Row | SMILES | DOPAC concentration in the striatum (MPTP-induced model of PD [1]; [3]) | dopamine concentration in the striatum (MPTP-induced model of PD [1]; [3]) | DOPAC content in the striatum (MPTP-induced model of PD [1]; [4]) | dopamine content in the striatum (MPTP-induced model of PD [1]; [4]) | total motor movement distance (MPTP-induced model of PD [2])
1 | OC[C@H]1O[C@H](O[C@H]2O[C@H](CO)[C@@H](O)[C@H](O)[C@H]2O)[C@H](O)[C@@H](O)[C@@H]1O [trehalose] | did not produce a significant effect | did not produce a significant effect | – | – | –
2 | CN1CC=C(c2ccccc2)CC1.Cl [MPTP, 1-Methyl-4-phenyl-1,2,3,6-tetrahydropyridine hydrochloride] | – | – | significant depletion | significant depletion | 24 % of sham
